The nature of the data set: Cytotoxicity activity against human HepG2 cells assessed by CellTiter-Glo luminescent cell viability assay. The format is toxicity, cell-based. Also on record: assay stage confirmatory assay, source tissue liver. The following applies: HepG2 cells, read-out: IC50 relative. A general note: ATP-based viability assays read luminescence as a measure of living cells.

Activity calls are given as the source filed them. How the calls were made is not given here.

Consider `CN(C)CCNC(=O)Cn1c(-c2ccccc2)nn(-c2ccc(Cl)cc2)c1=O`, for which the CC50 was 6.5 µM (active). With `CCCCc1ccc(-c2cnn3cccnc23)cc1`, the CC50 was 8.3 µM (inactive). With `Cc1cccnc1N1CCN(c2cc([C@H]3C[C@@H](N)C3)nc(N)n2)CC1`, the CC50 was 11.1 µM (active). Turning to `CCC(C)NC(=O)N1CC(Oc2ccc(-c3noc(C4CCOCC4)n3)cc2)C1` (centres undefined), the CC50 is 4.8 µM (active). Under `Cn1ncc(N2CCC(C(=O)N3CCN(CCOc4ccc(Cl)cc4)CC3)C2)cc1=O` (centres undefined) stands 5 µM (active); under `COc1ccc(C(=O)N[C@@H]2CN(Cc3ccccc3)C[C@H]2CN(C)C)cc1`, 7.2 µM (active). As for `CCN(CC)C(=O)N1CC(Oc2ccc(-c3noc(C4CCOCC4)n3)cc2)C1`, the CC50 was 2.3 µM (active).

For `CCN(CC)C(=O)N1CC(Oc2ccc(-c3noc(-c4cccnc4)n3)cc2)C1`, the CC50 was 2.2 µM (active).

As to `NCc1ccc(C(=O)NC2CCc3c[nH]nc3C2)cc1` (centres undefined), the CC50 is 9.4 µM (active). Under `CC(C)CCNC(=O)COc1ccc(-c2nc(C(C)C)no2)cc1` stands 3.2 µM (active); under `CCc1ccc(S(=O)(=O)N2CCN(c3ccc(C(C)=O)cc3)CC2)cc1`, 50 µM (inactive). In the case of `CN1CCC(NC(=O)c2ccc3c(c2)n(Cc2ccccc2)c(=O)c2ccnn23)CC1`, the CC50 was 9.8 µM (active). Consider `CC(C)NC(=O)N1CC(Oc2ccc(-c3noc(C4CCOCC4)n3)cc2)C1`, for which the CC50 is 4.1 µM (active). Regarding `CCN1CCN(CCNC(=O)c2cn3ccnc(-c4ccc(C)cc4)c3n2)CC1`, the CC50 was 29 µM (inactive).

Take `CC(C)c1noc(-c2ccc(OCC(=O)NC(C)(C)C)cc2)n1`: the CC50 is 8.2 µM (active).

Regarding `CC(NC(=O)N1CCCN(C)C2(CCNCC2)C1)c1ccccc1Cl` (centres undefined), the CC50 is 4.3 µM (active). The same measure for `COc1ccc(C(=O)N[C@@H]2CN(Cc3ccccc3)C[C@H]2CN(C)C)c(OC)c1`: 11.1 µM (active). Turning to `Cc1noc(C2CN(C3CCCC3)CCCN2C(=O)c2ccccc2)n1` (centres undefined), the CC50 is 6.6 µM (active). With `CCCNC(=O)N1CC(Oc2ccc(-c3noc(-c4cccnc4)n3)cc2)C1`, the CC50 is 6 µM (active).

With `O=C(c1ccncc1)N1CCC2(CC1)CC(Cc1nc(-c3ccncc3)no1)CCO2` (centres undefined), the CC50 is 5.2 µM (active). The same measure for `CCC(C)NC(=O)N1CC(Oc2ccc(-c3noc(-c4cccnc4)n3)cc2)C1` (centres undefined): 4.5 µM (active); for `CC(C)CNC(=O)N1CC(Oc2ccc(-c3noc(-c4cccnc4)n3)cc2)C1`: 5.4 µM (active); for `CC(C)CNC(=O)N1CC(Oc2ccc(-c3noc(C4CCOCC4)n3)cc2)C1`: 4.3 µM (active). As to `CN(C)CC1CCN(Cc2[nH]c3ccccc3c2Cl)C1` (centres undefined), the CC50 is 5.8 µM (active). As to `COc1ccc(NC(=O)Cn2sc3ccccc3c2=O)cc1OC`, the CC50 is 12.2 µM (active). The same measure for `Cc1ccc2nccc(N3CCCC(CCC(=O)N(C)C)C3)c2c1` (centres undefined): 8.3 µM (active); for `O=C(NC1CCCC1)N1CC(Oc2ccc(-c3noc(-c4cccnc4)n3)cc2)C1`: 6.9 µM (active); for `CC(C)CNC(=O)COc1ccc(-c2nc(C(C)C)no2)cc1`: 8.1 µM (active). Regarding `CCCNC(=O)N1CC(Oc2ccc(-c3noc(C4CCOCC4)n3)cc2)C1`, the CC50 was 3.7 µM (active).

Turning to `O=C(Nc1nc(-c2cccnc2)cs1)c1ccccn1`, the CC50 was 11.6 µM (active). Consider `Cc1cccc(C(=O)N[C@@H]2CN(Cc3ccccc3)C[C@H]2CN(C)C)c1`, for which the CC50 is 10 µM (active).

As for `COc1cccc(Cn2c(=O)c3ccnn3c3ccc(C(=O)NCCN(C)C)cc32)c1`, the CC50 was 12.3 µM (active). As to `Cn1c(CNC(=O)c2ccc3c(c2)n(C)c(=O)c2ccnn23)nc2ccccc21`, the CC50 was 16.4 µM (inactive). Take `CCN1CCN(Cc2cc(=O)oc3cc(-c4ccccc4)c(O)cc23)CC1`: the CC50 was 3.8 µM (active).

The record behind these values is ChEMBL document CHEMBL5303711, “ECBD screening data for assay EOS300108” (2023).
